Experimental data taken from US20040030161A1, “Recovery and purification of anhydro sugar alcohols from a vapor stream” (priority 2002, published 2004).

Type: physicochemical
Experimental: The basis for this process is illustrated for isosorbide in FIG. 1, where the upper curve represents the solubility of isosorbide in water (as percent by weight isosorbide) on the x-axis vs. temperature on the y-axis. The lower curve represents the composition of the condensate (as percent by weight isosorbide) when the condensation is conducted at a pressure of about 14 mm Hg. […] The condensate is a highly concentrated solution of isosorbide and contains only a small fraction as water. Thus, by conducting the condensation under these conditions, most of the isosorbide from, for example, a 20-30 weight percent isosorbide aqueous vapor stream is recovered, leaving most of the water in the vapor phase. The amount of isosorbide left in the vapor is negligibly small because of the very low vapor pressure of isosorbide, on the order of only about 0.001 mm Hg, at a condensation temperature of about 45° C.

SMILES: O[C@@H]1CO[C@H]2[C@@H]1OC[C@@H]2O [isosorbide, 1,4:3,6-dianhydrosorbitol]
- solubility of isosorbide in water (percent by weight isosorbide): ~100%
